Test system: Lung cancer cell line COR-L23 cells
Assay: Antitumor test, mouse subcutaneous transplantation model, COR-L23
Format: in vivo
Settings: COR-L23 in nude mice, 4 consecutive days, tumor measured next day
Excerpt: In vivo test of test compound: Antitumor test using mouse subcutaneous transplantation model
Lung cancer cell line COR-L23 cells were dissociated from a culture flask by trypsin treatment, then suspended in an RPMI1640 medium containing 10% FBS, and then centrifuged to remove the supernatant. The cells were washed with this medium twice and then suspended in PBS. The cell suspension was subcutaneously transplanted at a dose of 5×10^6 cells/mouse to the right axillary regions of 6-week-old nude mice (BALB/cAJc1-nu/nu, CLEA Japan, Inc.). The test was conducted by using cancer-bearing mice having an estimated tumor volume (major axis×minor axis×minor axis/2) of 100 to 150 mm3 and grouping the cancer-bearing mice without significant difference in average estimated tumor volume from a negative control group. The compound of Example 113 was suspended in solvent (EtOH/DMA/Solutol HS-15/PEG400/5% HMPC). The suspension was orally administered to each mouse once a day (QD) at a dose of 75, 150, or 300 mg/kg for 4 consecutive days. On the next day, the tumor sizes were measured.
The rate of tumor growth inhibition was also calculated in this test according to the following expression and is shown in a table.
Rate of tumor growth inhibition (%)=100−(Average value of the tumor volumes of the test compound administration group)/(Average value of the tumor volumes of the vehicle administration group)×100.

For `CCOc1cc(F)c(Cl)cc1C(=O)NCC(C)(C)CC(=O)Nc1c(COC)n(C)n(-c2ccccc2)c1=O` [Example 113, 5-Chloro-2-ethoxy-4-fluoro-N-(4-{[5-(methoxymethyl)-1-methyl-3-oxo-2-phenyl-2,3-dihydro-1H-pyrazol-4-yl]amino}-2,2-dimethyl-4-oxobutyl)benzamide], the “Rate of tumor growth inhibition (%)” value (75 mg/kg orally QD) was 39%, the “Rate of tumor growth inhibition (%)” value (150 mg/kg orally QD) was 52% and the “Rate of tumor growth inhibition (%)” value (300 mg/kg orally QD) was 81%.

Reference: US20170107207A1, “AMINOPYRAZOLONE DERIVATIVE” (DAIICHI SANKYO COMPANY, LIMITED, priority 2014, published 2017)
